Patent publication US20100041756A1, “METHOD OF MODULATING B CELL FUNCTIONING” (priority 2004, published 2010)
Several values for one entry are separate records, joined by “and”; a condition that tells them apart may be missing. Equal values may be shown once.

Columns and labels:
[1] = tested on: anti-type II collagen IgG1; experiment: Inhibition of anti-type II collagen antibody production in vivo (Example 5); parameters: species or system mouse
Description: Female DBA/1 mice (10 weeks of age) were immunised intraperitoneally on day 1 with 100 μg bovine type II collagen, dissolved in 0.05M Tris/0.2M NaCl, pH 7.4). Tranilast was dissolved in 1% sodium bicarbonate (10 mg/ml) by heating for 1 h at 70° C. Upon cooling, an emulsion was formed. Tranilast was administered intraperitoneally for three weeks (starting on day 1) at a dose of 400 mg/kg, every 2-3 days. Controls received vehicle alone. There were six mice per group.
On day 28 mice were bled and serum levels of anti-type II collagen IgG1 and IgG2a were measured by ELISA, as follows:
1. Polystyrene microtitre plates (Immulon 2, Dynatech Laboratories) were coated with DEAE-purified bovine type II collagen, dissolved in 0.2M NaCl/0.05M Tris, pH 7.4 (5 μg/ml), overnight at 4° C. 2. The plates were washed in phosphate-buffered saline (PBS), then blocked with BSA in PBS (2% w/v) for 1 h at room temperature. 3. After washing in PBS, containing Tween 20 (0.05% v/v), the sera were serially diluted in PBS/Tween, added to the plates and incubated for 2 h at room temperature. 4. After washing in PBS/Tween, bound IgG was detected by incubating goat anti-mouse IgG1 or anti-mouse IgG2a-HRP conjugate ( 1/1000) for 2 h at room temperature. 5. Develop colour reaction using TMB substrate. Stop reaction with 4.5NH2SO4 6. The plates were read at 450 nm on a microtitre plate reader.

[2] = tested on: B cells activated with LPS; experiment: B cell proliferation, BrdU uptake detected by FACS analysis (Example 2); format: cell-based; details: Mus musculus, LPS-induced, 100 μg/ml tranilast (FIG. 3), read-out: maximum inhibition of proliferation
Description: FIG. 3 is a graphical representation of the inhibition of B cell proliferation by tranilast. B-cells were activated in vitro with LPS, and 1-100 μg/ml tranilast. Proliferation was assessed using BrdU uptake, detected by FACs analysis. LPS induced proliferation in 72% of cells.
B cells were prepared for mouse spleen using rat anti-mouse IgM microbeads and the MACS system.
3 spleens were removed from male DBA/1 mice aged 8-12 weeks. A single cell suspension was prepared by cell-sieve.
Cells were cultured at 1×10^6 cells/ml in 2 ml complete RPMI with glutamine (10% FCS, 1% Pen/Strep, 50 μM 2-Mercaptoethanol, 1 mM Na-Pyruvate) for 48 h in the presence of LPS (20 μg/ml), and 100-25 μg/ml tranilast, or vehicle (DMSO).
20 μM BrdU (Sigma) was added to each well, and incubated overnight.
FACS analysis of staining was performed on the BD LSR Flow Cytometer.

[3] = tested on: DBA/1 mice with established CIA; experiment: Treatment of established CIA (Example 4): clinical score, paw-swelling, histology, relapse; format: in vivo, mouse
Description: FIG. 6 is a graphical representation of the treatment of established CIA with 3,4-DAA. DBA/1 mice were immunised with type II collagen in CFA and monitored for development of arthritis. On day 1 of arthritis, mice were injected intraperitoneally with 3,4-DAA on a daily basis. Paw thickness was measured with callipers. The clinical scoring system was as follows: 0=normal, 1=slight swelling and/or erythema, and 2=pronounced oedematous swelling. Each limb was graded, giving a maximum score of 8 per mouse. Histological assessment of arthritis was carried out on haematoxylin and eosin stained sections using a scoring system as follows: 0, normal; 1, minimal synovitis without cartilage/bone erosion; 2, synovitis with some marginal erosion but joint architecture maintained; 3, severe synovitis and erosion with loss of normal joint architecture. There were 14 mice/group (data pooled from two separate experiments). *, P<0.05 (compared to control group).
FIG. 9 is a graphical representation depicting the relapse of arthritis 4 days after cessation of therapy. Mice with established CIA (n=6) were treated with 3,4-DAA (400 mg/kg/day) from days 1 to 5 of arthritis and clinical severity of arthritis was monitored up to day 12. Arthritis is seen to relapse at around day 9.
Type II collagen was purified from bovine cartilage, as described [Williams, R. O. 2004, Methods Mol. Med. 98:207-216] and solubilized by stirring overnight at 4° C. in acetic acid (0.1M) or Tris buffer (0.05 M Tris, containing 0.2 M NaCl, pH 7.4). Tranilast was synthesised by Angiogen Pharmaceuticals Pty. Ltd. For in vivo studies Tranilast was dissolved at a maximum concentration of 10 mg/ml in 1% sodium bicarbonate by heating for 1 h at 70° C. Upon cooling, an emulsion was formed. For in vitro studies Tranilast was dissolved in dimethyl sulphoxide (DMSO). 3-Hydroxy-anthranilic acid (3-HAA) was purchased from Sigma (Poole, UK) and dissolved in PBS.
Male DBA/1 mice (8-12 weeks old) were immunized intradermally at the base of the tail with bovine type II collagen (200 μg) emulsified in complete Freund's adjuvant (CFA; Difco, West Moseley, UK). Arthritis was monitored clinically using the following scoring system: 0=normal, 1=slight swelling and/or erythema, and 2=pronounced oedematous swelling. Each limb was graded, giving a maximum score of 8 per mouse. In addition, paw-swelling was measured using calipers.
Histopathological assessment of arthritis was carried out in a blinded fashion on decalcified haematoxylin and eosin stained sections using a scoring system as follows: 0, normal; 1, minimal synovitis without cartilage/bone erosion; 2, synovitis with some marginal erosion but joint architecture maintained; 3, severe synovitis and erosion with loss of normal joint architecture. This research was approved by the local ethical review process committee and by the Home Office of Great Britain.
The ability of Tranilast to treat established CIA was tested. Mice were immunised with type II collagen in CFA. On day 1 of clinical arthritis (the day that arthritis was first observed) mice were randomly assigned to different treatment groups and given Tranilast (100 mg/kg/day, 200 mg/kg/day or 400 mg/kg/day) or vehicle alone over a 10 day period. […]
It is clearly of interest to establish what happens when treatment with Tranilast is stopped. […] Treatment was then stopped and mice were monitored for a further 7 days.

[4] = individual mice, day 28, 400 mg/kg i.p. every 2-3 days for three weeks
[5] = 100, 200 or 400 mg/kg/day, 10 days (FIG. 6)

## COc1ccc(/C=C/C(=O)Nc2ccccc2C(=O)O)cc1OC [Tranilast, 2-[[3-(3,4-dimethoxyphenyl)-1-oxo-2-propenyl]amino]benzoic acid]
[1]; group comparison, P=0.03, Mann Whitney test
  Levels of anti-type II collagen IgG1: significantly higher in the control group versus the Tranilast treated group
[1]; [4]
  OD450 (dilution 1/100), anti-type II collagen IgG1: 0.07 and 0.06 (2×) and 0.31 and 0.08 (2×)
  Titre (reciprocal), anti-type II collagen IgG1: <50 (4×) and <1/50 and 150
[2]
  inhibition at 100 µg/mL: 75%
[3]; 400 mg/kg/day days 1 to 5, monitored up to day 12 (FIG. 9)
  day of relapse (exacerbation) of arthritis after cessation of therapy: 9 days
[3]; 400 mg/kg/day, day 1 to day 5 of arthritis (FIG. 9)
  arthritis severity during the treatment period: dramatic reduction in arthritis severity
[3]; [5]
  clinical scores: dose-dependent reduction
  paw-swelling: dose-dependent reduction
[3]; day 10 (FIG. 6)
  histological severity of arthritis: clear dose-dependent reduction
